Experimental data from PMC7997578, “Design, Synthesis, Dynamic Docking, Biochemical Characterization, and in Vivo Pharmacokinetics Studies of Novel Topoisomerase II Poisons with Promising Antiproliferative Activity” (Journal of Medicinal Chemistry, 2020).
Read-outs that look alike come from different tables or passages of the source.

How the values were obtained:
[1] = in vivo pharmacokinetics in mice; details: mouse
Method: Finally, on the basis of the overall results and drug-like profile, 3f was selected as our lead for in vivo pharmacokinetics studies, as a preparatory characterization for future analyses of in vivo drug efficacy in animal models of cancer. We tested two different routes of administration: (i) intravenous (iv) injection at a concentration of 3 mg/kg (n = 3 for each time point) and oral (po) treatment at a dose of 10 mg/kg (n = 3 for each time point). Despite the relatively low thermodynamic solubility of 3f (30 μM in PBS), the compound reached the target concentration in the formulation used for the in vivo experiments. The mean plasma concentration versus time profile of 3f is shown in Figure 5, and the corresponding pharmacokinetic parameters are summarized in the inserted table.
Male C57B6/J male mice, 8 weeks old, 25-30 g were used (Charles River). All procedures were performed in accordance with the Ethical Guidelines of European Communities Council (Directive 2010/63/EU of 22 September 2010) and accepted by the Italian Ministry of Health. All efforts were made to minimize animal suffering and to use the minimal number of animals required to produce reliable results, according to the “3Rs concept”. Animals were group-housed in ventilated cages (n=5 mice per cage) and had free access to food and water. They were maintained under a 12-hour light/dark cycle (lights on at 8:00 am) at controlled temperature (21°C ± 1°C) and relative humi dity […]
4. Pharm acok inet ic studies
Compound 3f was administered orally (P.O.) and intravenously (I.V.) to C57B6/J male mice at 10 and 3 mg/Kg dose. Vehicle was: PEG400/Tween 80/Saline solution at 10/10/80 % in volume respectively. 3f was first dissolved in 100% PEG, then diluted to the final target concentration in this vehicle. The target concentration of 3f in the dosing solution was checked and confirmed by LC-MS .
The dosing solutions were diluted differently in the vehicle. The different dilutions were further diluted 4-fold with CH3CN prior to analysis. A reference standard was spiked in the vehicle to prepare a calibration curve over a 0.1 -10µM range. The ca librators were also diluted 4 -fold with CH3CN as for the dosing solution dilutions. The dosing solutions and calibrators were analys ed under the sam e conditions as for the plasma samples described below.
Three animals per dose were treated. Blood samples at 0, 15, 30, 60, 120, 240, and 480 minutes after administration were collected for PO arm. Blood samples at 0, 5, 15, 30, 60, 120 and 240 minutes after administration were collected for IV arm. Plasma was separated from blood by centrifugation for 15 minutes at 3500 rpm a 4°C, collected in a eppendorf tube and frozen ( -80°C). Brain samples were homogenized in Phosphate buffered saline a nd were then split in two aliquots kept at -80 °C until analysis. An aliquot was used for compound brain level evaluations, following the same procedure described below for plasma samples. The second aliquot was kept for protein content evaluation by bicinchoninic acid assay (BC A). Control animals treated with vehicle only w ere also included in the experimental protocol.
Plasma samples were centrifuged at 21.100g for 15min. at 4°C. A 50µl aliquot was transferred into a 96-Deep Well plate and 150µl of extraction so lution was added. The extraction solution was consisting of cold CH3CN spiked with 200n M of internal standard. The plate was centrifuged at 3270g for 15min. at 4°C. 80µl of supernatant was then transferred into a 96 -Deep Well plate and 80µl of H2O was added. A reference standard of the compound was spiked in naïve mouse plasma to prepare a calibration curve over a 1nM – 10µM range. Three quality control samples were prepared by spiking the compound in blank mouse plasma to the final concentrations of 20, 200 and 2000nM.
Calibrators and quality controls were extracted wit h the same e xtraction solution used for the plasma samples. The samples w ere analysed on a W aters ACQUITY UPLC/MS TQD system (Water s Inc. […]

DU145 cells = test: cell viability MTT assay, DU145; assay type: cell-based, human; details: mean ± SD of two experiments, read-out: DU145 antiproliferative activity IC50
Method: The antiproliferative activity of all compounds was evaluated in (i) DU145, an androgen-independent prostate cancer cell line; (ii) HeLa, a cervical cancer cell line; and (iii) A549, a lung adenocarcinoma cell line (Table 1). […] Undoubtedly, this preliminary cytotoxicity data will need further characterization, also in relation to the in vitro activity of these compounds.
Human cancer cell lines A549 (lung adenocarcinoma, ATCC CCL-185), DU-145 (androgen-independent prostate cancer, ATCC HTB-81), and HeLa (cervical carcinoma, ATCC CCL-2) were obtained from ATCC. Cells were routinely grown in minimal essential medium containing Eagle’s salts and L-glutamine supplemented with 10% heat-inactivated FBS in a humidified atmosphere of 5% CO2 at 37 °C. To assess the antiproliferative activity of the compounds, cells were seeded at a density of 2500 cells/well (HeLa) or 5000 cells/well (A549, DU-145) in 96-well plates, and cell viability was measured using the MTT assay as described previously.[39] Values are reported as the mean ± SD of two independent experiments.

`O=C(Nc1cccc(OC(F)(F)F)c1)c1c(O)n(-c2ccccc2)c(=S)n(-c2ccccc2)c1=O` [3f, 6-Hydroxy-4-oxo-1,3-diphenyl-2-thioxo-N-(3-(trifluoromethoxy)phenyl)-1,2,3,4-tetrahydropyrimidine-5-carboxamide] gave a concentration at 2 h ([1]; male, C57B6/J, plasma, iv 3 mg/kg, 2 h, read-out: plasma concentration after 2 h) of 551 ng/mL, a bioavailability ([1]; male, C57B6/J, plasma, po 10 mg/kg vs iv 3 mg/kg, based on AUC from t = 0 to 240 min, read-out: bioavailability F) of 8% and an AUCplasma ([1]; iv 3 mg/kg) of 295528 ng·min/mL. It also gave a CL ([1]; iv 3 mg/kg) of 4 mL/min/kg, a Clp ([1]; iv 3 mg/kg) of 0.004 L min^–1 kg^–1 and a Tmax ([1]; iv 3 mg/kg) of 5 min. The Vd ([1]; iv 3 mg/kg) was 3 L/kg, the “t½ (elimination phase)” value ([1]; iv 3 mg/kg) was 30 min and the “tolerability during PK studies” value ([1]; iv 3 mg/kg or po 10 mg/kg) was “well tolerated”. The treatment-related clinical signs ([1]; iv 3 mg/kg or po 10 mg/kg) was “no treatment-related clinical signs were observed”, the Cmax ([1]; iv 3 mg/kg, plasma) was 7366 ng/mL and the AUCplasma ([1]; po 10 mg/kg) was 77385 ng·min/mL. The Tmax ([1]; po 10 mg/kg) was 120 min, the Vd ([1]; po 10 mg/kg) was 18 L/kg and the “plasma concentration reached at 1 h and stably maintained for at least 6 h” value ([1]; po 10 mg/kg) was “about 400 ng/mL”. For the same compound, the “time of maximum concentration” value ([1]; po 10 mg/kg) was “approximately 2 h”, the “t½ (elimination phase)” value ([1]; po 10 mg/kg) was 190 min and the Cmax ([1]; po 10 mg/kg, plasma) was 428 ng/mL. For the same compound, the IC50 (DU145 cells; DU145 prostate cancer cells) was 4.7 ± 0.1 µM and the IC50 (DU145 cells; Homo sapiens, DU-145, DU145 prostate cancer cells) was under 5 µM.
